According to PubChem BioAssay (NCI):
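Cultured in 96-well plates, cells were exposed to test compound for 48 hours across five concentrations. TGI denotes the concentration required for complete inhibition of growth.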

Assays:
Assay in all cases: NCI tumour cell line growth inhibition, 48 h
DMS 114 small cell lung = test system: DMS 114 small cell lung
DMS 273 small cell lung = test system: DMS 273 small cell lung
KM20L2 colon = test system: KM20L2 colon
LXFL 529 NSCLC = test system: LXFL 529 NSCLC
M19-MEL melanoma = test system: M19-MEL melanoma
XF 498 CNS = test system: XF 498 CNS
HOP-18 NSCLC = test system: HOP-18 NSCLC
SNB-78 CNS = test system: SNB-78 CNS
RXF-631 renal = test system: RXF-631 renal

Structure (SMILES)	TGI (DMS 114 small cell lung) [µM]	TGI (DMS 273 small cell lung) [µM]	TGI (KM20L2 colon) [µM]	TGI (LXFL 529 NSCLC) [µM]	TGI (M19-MEL melanoma) [µM]	TGI (XF 498 CNS) [µM]	TGI (HOP-18 NSCLC) [µM]	TGI (SNB-78 CNS) [µM]	TGI (RXF-631 renal) [µM]
CSc1nc(Cl)c(Br)c(Sc2nc(N)nc3nc[nH]c23)n1	18.9	15.6	18.8	18.7	23.4	30.1			
Clc1ccc2c(c1)C1C(CO2)C(c2ccccc2)=NN1c1ccccc1 (centres undefined)	77.5	88.7	> 100	> 100	> 100	59	50.8	> 100	
COc1cc(/C=C(\C#N)C(=O)c2ccccc2)ccc1O			> 100	> 100	> 100	> 100		> 100	
Nc1ccc2nc(Nc3ccc(F)cc3)cnc2c1	> 100	> 100			> 100	> 100			
CC(=O)OC1COC(Nc2ccc(C(C)=O)cc2)C(OC(C)=O)C1OC(C)=O (centres undefined)	> 100	> 100	> 100	> 100	> 100		> 100	> 100	> 100
CN(C(=O)C12C3C4C1C1C4(C(=O)C45C6C7C4C4C5C6C74C)C3C12C)C(C)(C)C (centres undefined)	> 100	> 100	85.3	> 100	> 100	> 100		> 100	> 100
COC(=O)N1CCc2c(nc(N(C)CCO)[nH]c2=O)C1	> 100	> 100	> 100	> 100	> 100	> 100	> 100	> 100	
CC(=O)OC[C@]1(O)CC[C@@]23CC1C[C@@H]2CCC1C(C)(C)CCC[C@@]13C (some centres undefined)	25.3	12.7	31.7	23.2	29.4	27.2		32.7	27.3
O=C1CCC(=O)N1Cc1ccccc1N=[N+]([O-])c1ccccc1CN1C(=O)CCC1=O	> 100	> 100	> 100	> 100	> 100	> 100		> 100	
CCN=C(NNc1ccc([N+](=O)[O-])cc1)P(=O)(OC(C)C)OC(C)C	> 100	> 100	> 100	> 100	> 100	> 100		> 100	
COc1cccc(NC(=O)/C(CC(=O)CC(c2ccccc2)c2c(O)c3ccccc3oc2=O)=N\NC(C)(C)C)c1OC (centres undefined)	> 100		> 100	> 100	> 100			> 100	
